Like-named read-outs stand apart in the source and are kept apart here.

One series concerns HIV. The conditions noted are these: cited from earlier work.
Series [1] is described as follows: Cytotoxicity, MTT assay in CEM-T4 cells. The following applies: human. The procedure:
(§1) Evaluation of anti-HIV activity consisted of measurements of p24 antigen using the Genscreen ULTRA HIV Ag-Ab Kit. […] We included betulin and betulinic acid in our studies in order to broaden the structure-activity study. BVM, the first HIV-1 maturation inhibitor, was applied as a reference compound.
For the determination of compounds cytotoxicity, CEM-T4 cells were obtained from the NIH AIDS Reagent Program (NIH, US) and were cultured in RPMI supplemented with 10% FCS (Biochrom) and antibiotics at 37 °C in 5% CO2 on 96-well culture plates. […] Cultures in a neat medium (RPMI, 10% FCS) were used as a control. Viability of cells was determined after 7 days using the MTT assay in which 10 μL of MTT solution (5 mg/mL) was added to each culture plate well, and cultures were incubated for 3 h at a temperature of 37 °C. After the centrifugation, the supernatant was removed, and DMSO was added for lysis of the cells and to dissolve crystals of formazan. Color intensity was measured with a plate reader at 560 nm. Cell viability was determined by the Equation (1):Viability (%) = (OD of samples enriched in test drugs/OD of control samples) × 100(1) where OD means optical density.
Based on the calculations, a graph was created regarding the relationship between the concentration of the compound and the viability from which CC50 was established.

Series [2] concerns HIV-1. Description: microbe, parasite or virus in culture. The conditions noted are these: for TI (selectivity index): HIV-infected CEM-T4 cell line. The procedure:
as §1
CEM-T4 cells were preincubated (culture plates with 96 flat bottom wells) for 24 h under standard conditions (37 °C, 5% CO2) and in a standard medium (RPMI, FCS 10%) enriched with tested compounds in the concentration range from 0.02 µM to 10 µM. In each well, 20,000 cells were suspended in the solution of a tested compound (200 μL). For each concentration, cultures were run in triplicate. A wild-type HIV-1 was isolated from the HIV-positive patient in the Laboratory of Virology of the National Medicines Institute (Warsaw, Poland) and was used as a reference. A culture of CEM-T4 lines in a standard neat medium (RPMU, FCS 10%) was used to produce viruses. After 24 h of incubation in a medium enriched with a tested compound, cells were inoculated with a known amount of HIV, and after 7 days, HIV replication was evaluated through the measurement of secreted viral protein p24 carried out with the enzyme-linked immunosorbent assay (ELISA) technique. For each tested compound and for each concentration, the measurements of p24 antigen were done in triplicate using the Genscreen ULTRA HIV Ag-Ab Kit (Biorad, Warszawa, Poland) and following manufacturer’s instructions. The absorbance of the sample was determined as an OD measured at 650 nm. HIV replication capacity was calculated using the Equation (2):Virus replication (%) = (OD of drug-enriched samples/OD of control samples) × 100(2)
The results were presented by a graph showing the ratio of HIV replication to the concentration of the tested preparation.

For series [3], the system named is HIV-1. Also noted: method as in PMID 8176401. The conditions noted are these: inhibiting HIV-1 replication; cited from earlier work.
The mark [4] stands for this setting: Human immunodeficiency virus 1, CEM-T4, 168 h, wild-type HIV-1 in CEM-T4 cells, p24 antigen, 7 days, 50% inhibition of replication.
Setting [5] is: wild-type HIV-1 in CEM-T4 cells, p24 antigen, 7 days, 50% inhibition of replication.

As to 3,28-di(dimethylglutaryl)betulin, the EC50 with HIV is 0.66 nM.

Turning to `C=C(C)C1CCC2(C(=O)O)CCC3(C)C(CCC4C5(C)CCC(OC(=O)CC(C)(C)CC(=O)O)C(C)(C)C5CCC43C)C12` (stereo not shown) [3′,3′-dimethylglutarylbetulinic acid], in the series on HIV (literature reports), the EC50 is 2.3 nM.

`C=C(COP(=O)(OCC)OCC)C1CCC2(C(=O)O)CCC3(C)C(CCC4C5(C)CCC(O)C(C)(C)C5CCC43C)C12` (stereo not shown) [Compound 9] gave a CC50 at 7 days in series [1] of 18 ± 1.79 µM. Also, in the series on HIV-1 [2] (setting [4]), the IC50 was > 10000 nM.

Compound `CCOP(=O)(C=C(C)C1CCC2(C(=O)O)CCC3(C)C(CCC4C5(C)CCC(O)C(C)(C)C5CCC43C)C12)OCC` (stereo not shown) [Compound 10, 29-Diethoxyphosphorylbetulinic acid] came in with a CC50 at 7 days in series [1] of 80 ± 1.3 µM. For the same compound, in the series with HIV-1 [2], the “TI (selectivity index)” value is recorded as <8. Moreover, the IC50 in the series on HIV-1 [2] (setting [4]) was > 10000 nM.

With `C=C(CP(=O)(OCC)OCC)C1CCC2(C(=O)O)CCC3(C)C(CCC4C5(C)CCC(O)C(C)(C)C5CCC43C)C12` (stereo not shown) [Compound 11, 30-Diethoxyphosphorylbetulinic Acid], in series [1], the CC50 at 7 days is > 42 µM. For the same compound, in the series with HIV-1 [2] (setting [4]), the IC50 is > 10000 nM.

`C=C(COP(=O)(OCC)OCC)C1CCC2(C(=O)O)CCC3(C)C(CCC4C5(C)CCC(OC(=O)CC(C)(C)C(=O)O)C(C)(C)C5CCC43C)C12` (stereo not shown) [Compound 12a] came in with a 50% cytotoxic concentration (CC50) at 7 days in series [1] of 52 ± 1.07 µM. For the same compound, the “TI (selectivity index)” value in the series on HIV-1 [2] amounted to 52. Further, the values for the half-maximal inhibitory concentration (IC50) with HIV-1 [2] (setting [4]) and in the series with HIV-1 [2] (setting [5]) were < 2000 nM and 1000 ± 330 nM, respectively.

As for `C=C(COP(=O)(OCC)OCC)C1CCC2(C(=O)O)CCC3(C)C(CCC4C5(C)CCC(OC(=O)CC(C)(C)CC(=O)O)C(C)(C)C5CCC43C)C12` (stereo not shown) [Compound 12b], the CC50 at 7 days in series [1] worked out at 28 ± 1.64 µM. Moreover, in the series with HIV-1 [2], the “TI (selectivity index)” value was determined as 47. In addition, half-maximal inhibition in the series with HIV-1 [2] (setting [4]) (IC50) was put at 600 ± 40 nM.

For `C=C(COP(=O)(OCC)OCC)C1CCC2(C(=O)O)CCC3(C)C(CCC4C5(C)CCC(OC(=O)CCC(C)(C)C(=O)O)C(C)(C)C5CCC43C)C12` (stereo not shown) [Compound 12c], the CC50 at 7 days in series [1] was found to be 64 ± 1.84 µM. The “TI (selectivity index)” value in the series with HIV-1 [2] amounted to 16. In the series with HIV-1 [2] (setting [4]), this compound showed an IC50 of 4000 ± 1650 nM.

Consider `CCOP(=O)(C=C(C)C1CCC2(C(=O)O)CCC3(C)C(CCC4C5(C)CCC(OC(=O)CC(C)(C)C(=O)O)C(C)(C)C5CCC43C)C12)OCC` (stereo not shown) [Compound 13a], for which the CC50 at 7 days in series [1] is > 68 µM. In the series on HIV-1 [2], the “TI (selectivity index)” value is on record as >35. The IC50 in the series with HIV-1 [2] (setting [4]) was < 2000 nM; in the series on HIV-1 [2] (setting [5]), 2000 ± 720 nM.

Consider `CCOP(=O)(C=C(C)C1CCC2(C(=O)O)CCC3(C)C(CCC4C5(C)CCC(OC(=O)CC(C)(C)CC(=O)O)C(C)(C)C5CCC43C)C12)OCC` (stereo not shown) [Compound 13b], for which the 50% cytotoxic concentration (CC50) at 7 days in series [1] is > 68 µM. Besides, in the series with HIV-1 [2], the “TI (selectivity index)” value is on record as >8. The compound also yielded an IC50 in the series on HIV-1 [2] (setting [4]) of 8800 ± 1700 nM.

Turning to `CCOP(=O)(C=C(C)C1CCC2(C(=O)O)CCC3(C)C(CCC4C5(C)CCC(OC(=O)CCC(C)(C)C(=O)O)C(C)(C)C5CCC43C)C12)OCC` (stereo not shown) [Compound 13c], in series [1], the CC50 at 7 days was > 68 µM. For the same compound, the half-maximal inhibitory concentration (IC50) in the series with HIV-1 [2] (setting [4]) was > 10000 nM.

As for `C=C(CP(=O)(OCC)OCC)C1CCC2(C(=O)O)CCC3(C)C(CCC4C5(C)CCC(OC(=O)CC(C)(C)C(=O)O)C(C)(C)C5CCC43C)C12` (stereo not shown) [Compound 14a], the CC50 at 7 days in series [1] is > 68 µM.

As for `C=C(CP(=O)(OCC)OCC)C1CCC2(C(=O)O)CCC3(C)C(CCC4C5(C)CCC(OC(=O)CC(C)(C)CC(=O)O)C(C)(C)C5CCC43C)C12` (stereo not shown) [Compound 14b], in series [1], the CC50 at 7 days is > 68 µM. Besides, in the series with HIV-1 [2], the “TI (selectivity index)” value is reported as >75. The compound further had an IC50 in the series on HIV-1 [2] (setting [4]) of 900 ± 120 nM.

Turning to `C=C(CP(=O)(OCC)OCC)C1CCC2(C(=O)O)CCC3(C)C(CCC4C5(C)CCC(OC(=O)CCC(C)(C)C(=O)O)C(C)(C)C5CCC43C)C12` (stereo not shown) [Compound 14c], the CC50 at 7 days in series [1] was > 68 µM. Also, the “TI (selectivity index)” value with HIV-1 [2] is >68. The same compound returned an IC50 with HIV-1 [2] (setting [4]) of 1000 ± 170 nM.

With `C=C(C)[C@@H]1CC[C@]2(CO)CC[C@]3(C)[C@H](CC[C@@H]4[C@@]5(C)CC[C@H](O)C(C)(C)[C@@H]5CC[C@]43C)[C@@H]12` [betulin, lup-20(29)-ene-3β,28-diol, reference compound], in series [1], the CC50 at 7 days was 46 ± 3.01 µM. Besides, in the series with HIV-1 [2] (setting [4]), the IC50 is > 10000 nM.

As to `C=C(C)[C@@H]1CC[C@]2(C(=O)O)CC[C@]3(C)[C@H](CC[C@@H]4[C@@]5(C)CC[C@H](O)C(C)(C)[C@@H]5CC[C@]43C)[C@@H]12` [betulinic acid, 3β-hydroxy-20(29)-lupaene-28-oic acid, reference compound], the CC50 at 7 days in series [1] stood at 5 ± 2.44 µM. Besides, the IC50 in the series with HIV-1 [2] (setting [4]) was > 10000 nM. Also, the EC50 with HIV-1 [3] is 1600 nM.

In series [1] (CEM-T4 cells), `C=C(C)[C@@H]1CC[C@]2(C(=O)O)CC[C@]3(C)[C@H](CC[C@@H]4[C@@]5(C)CC[C@H](OC(=O)CC(C)(C)C(=O)O)C(C)(C)[C@@H]5CC[C@]43C)[C@@H]12` [bevirimat, 3-O-(3′,3′-dimethylsuccinyl) betulinic acid, reference compound] returned a CC50 at 7 days of 29 ± 2.43 µM. This compound also gave an IC50 with HIV-1 [2] (Human immunodeficiency virus 1, CEM-T4, 168 h) of 30 ± 9 nM. The EC50 with HIV (literature reports) was 0.35 nM.
